# Test results from US9144594B2, “Cathepsin L mediated diseases and associated methods and products” (University of Miami, priority 2005, dated 2015).
# Residue numbers refer to the chain shown, from its start. Numbers in names are those of the source. Entries after “also recorded” stand apart in the source; their conditions may differ.
# B1: CFP-1690K: dynI690K tagged with ECFP (protein)
# chain: MGNRGMEDLIPLVNRLQDAFSAIGQNADLDLPQIAVVGGQSAGKSSVLENFVGRDFLPRGSGIVTRRPLVLQLVNATTEYAEFLHCKGKKFTDFEEVRLEIEAETDRVTGTNKGISPVPINLRVYSPHVLNLTLVDLPGMTKVPVGDQPPDIEFQIRDMLMQFVTKENCLILAVSPANSDLANSDALKVAKEVDPQGQRTIGVITKLDLMDEGTDARDVLENKLLPLRRGYIGVVNRSQKDIDGKKDITAALAAERKFFLSHPSYRHLADRMGTPYLQKVLNQQLTNHIRDTLPGLRNKLQSQLLSIEKEVEEYKNFRPDDPARKTKALLQMVQQFAVDFEKRIEGSGDQIDTYELSGGARINRIFHERFPFELVKMEFDEKELRREISYAIKNIHGIRTGLFTPDMAFETIVKKQVKKIREPCLKCVDMVISELISTVRQCTKKLQQYPRLREEMERIVTTHIREREGRTKEQVMLLIDIELAYMNTNHEDFIGFANAQQRSNQMNKKKTSGNQDEILVIRKGWLTINNIGIMKGGSKEYWFVLTAENLSWYKDDEEKEKKYMLSVDNLKLRDVEKGFMSSKHIFALFNTEQRNVYKDYRQLELACETQEEVDSWKASFLRAGVYPERVGDKEKASETEENGSDSFMHSMDPQLERQVETIRNLVDSYMAIVNKTVRDLMPKTIMHLMKNNTKEFIFSELLANLYSCGDQNTLMEESAEQAQRRDEMLRMYHALKEALSIIGDINTTTVSTPMPPPVDDSWLQVQSVPAGRRSPTSSPTPQRRAPAVPPARPGSRGPAPGPPPAGSALGGAPPVPSRPGASPDPFGPPPQVPSRPNRAPPGVPSRSGQASPSRPESPRPPFDL
# modifications: left off: large carriers
# notes: dynI690K tagged with ECFP
# B2: CFP-K44A: dynK44A tagged with ECFP (protein)
# chain: B1 chain with K44A, K690I
# modifications: left off: large carriers
# notes: dynK44A tagged with ECFP
# Key:
# [1] = test system: dynamin-dynamin interactions; experiment: FLIM analysis of dynamin-dynamin interactions in live COS cells; assay type: cell-based; conditions: for dynamin-dynamin interactions measured by FLIM, in words: COS cells pre-treated; for Mean Lifetime (γ1) ps: Table 3
# Source text: FLIM is based on the fluorescence resonance energy transfer (FRET) between the donor and acceptor that shortens the lifetime of the donor if the acceptor distance is within ≈100 Å (10 nm). […] To this end, dynamin was tagged with either ECFP or EYFP on its N- and C-termini. Fusion proteins were expressed in COS cells, because these cells are flattened and have minimal background autofluorescence, which allows clear visualization of cells by wide-field microscopy.
# The observed decrease in fluorescence lifetime of CFP-dynamin in cells expressing EYFP-dynamin could result from interactions between dynamin monomers within tetramers/dimers, or from interactions between assembled tetramers/dimmers into higher order structures (FIG. 8C). To distinguish these two possibilities, we used FLIM to examine dynI690K. […] The longer average lifetimes of dynI690K than dynwt argue strongly that the assay detects higher order dynamin self-assembly and not tetramer formation.
# [2] = test system: dynamin-dynamin interactions; experiment: FLIM analysis of dynamin-dynamin interactions (self-assembly) in podocytes; assay type: cell-based, mouse; conditions: for dynamin self-assembly by FLIM, in words: podocytes pretreated; for Mean Lifetime (γ1): Table 4, donor GTPase-a488, acceptor Hudy1-a568, in ps
# Protocol: In one embodiment the cell-based assay to monitor dynamin-dynamin interactions is performed on a cultured mouse podocyte cell line and the readout of dynamin self-assembly using fluorescence lifetime imaging microscopy (FLIM). FLIM is based on the fluorescence resonance energy transfer (FRET) between the donor and acceptor that shortens the lifetime of the donor if the acceptor distance is within ≈100 Å (10 nm). […] The assay is based on overexpressing dynamin in podocytes, and subsequently staining fixed cells with monoclonal anti-dynamin antibodies that have been conjugated with donor or acceptor florophores. In one embodiment of the invention, Alexa-488 is used as the donor florophore and Alexa-568 is used as the acceptor florophore. In yet another embodiment the donor florophore is dynamin conjugated enhanced-cyan fluorescence protein (ECFP) and the acceptor is dynamin conjugated enhanced yellow-fluorescence protein (EYFP). It will be appreciated by the person of ordinary skill in the art that numerous combinations of FRET donor and acceptors can be used, which are readily available and known. In one embodiment, the FLIM assay is carried out in COS cells and the donor can be selected from the list consisting of: ECFP-WT, ECFP-1690K, ECFP-K44A, ECFP-K694A, and the -acceptor can be selected from the list consisting of: EYFP, EYFP-WT, EYFP-K44A, EYFP-1690K, EYFP-K694A. In yet another embodiment the FLIM assay is performed in podocytes and the donor is GTPase-Alexa488 and the acceptor is selected from the list consisting of: DAM-Alexa568, GTPase-Alexa568, and Hudyl-Alexa568. Cells are stained by mixing both donor and acceptor florophores in equal amounts, and examining the spatially-restricted lifetime shortening in cells detects the localization of dynamin-dynamin interactions in cells. Since dynamin-dynamin interactions are vital for the function of the podocyte, it will be appreciated by the person of ordinary skill in the art that this assay can now be used to screen peptides, small molecules or drugs which can affect these molecular interactions. For example such molecules are cytocholasin D, jasplakinolide, colchisine, dynK44A, dynK694A, dynWT, dynI690K, dynR725A (SEQ ID NO.4), dynL356Q, G358V, (SEQ ID NO.3) any combination thereof, etc.
# In order to test the hypothesis that self-assembly of dynamin was protecting its cathepsin L processing in cultured podocytes, dynamin self-assembly in live cells was examined using fluorescence lifetime imaging microscopy (FLIM). FLIM is based on the fluorescence resonance energy transfer (FRET) between the donor and the acceptor that shortens the lifetime of the donor if the acceptor distance is within ≈100 Å (10 nm). […] A FLIM-assay was developed that specifically detects dynamin self-assembly into the higher order structures in podocytes. The assay is based on overexpressing dynamin in podocytes, and subsequently staining fixed cells with monoclonal anti-dynamin antibodies that have been conjugated with either Alexa-488 (donor florophore) or Alexa-568 (acceptor florophore). Cells are stained by mixing both florophores in equal amounts, and examining lifetime of Alexa-488. […] Importantly, FRET only occurred in the vicinity of the membrane. […] Thus, both dominant activating mutants, dynK694A and dynR725A, are impaired for assembly into a supramolecular structures in podocytes under normal conditions. […] Loss of FRET measured FLIM correlates with the loss of p40 proteolytic fragment in cultured podocytes. And presence of p40 in cells expressing dynR725A under normal conditions correlates with the lack of dynR725A assembly detected by FLIM. The opposite is true for the dynWT; lack of p40 under control conditions when FLIM is present, and appearance of the p40 upon LPS treatment with no measurable FRET. […] Finally, proteolytic processing of dynamin after LPS treatment is also observed in vivo. […]
# cathepsin L = molecular target: T1, cathepsin L (Homo sapiens, UniProt P07711); experiment: Processing of recombinant dynamin by purified CatL in vitro; assay type: biochemical; conditions: pH 7.0
# T1 construct: purchased Sigma, Saint Louis, Mo
# T1 sequence (P07711 114-333, species assumed): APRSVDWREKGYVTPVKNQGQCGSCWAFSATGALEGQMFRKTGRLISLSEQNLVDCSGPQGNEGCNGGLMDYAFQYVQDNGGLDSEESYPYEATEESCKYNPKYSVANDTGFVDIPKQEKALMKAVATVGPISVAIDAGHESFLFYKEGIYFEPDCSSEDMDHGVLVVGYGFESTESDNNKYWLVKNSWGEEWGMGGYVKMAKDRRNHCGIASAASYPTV
# Protocol: Reinheckel and colleges have developed the bioinformatics tool ‘PEPS’ (Prediction of Endopeptidase Substrates) to predict endopeptidase cleavage sites. By using PEPS, three putative cathepsin L sites within dynamin were identified (FIG. 4A). To assess whether cathepsin L could cleave dynamin at neutral pH 7.0, recombinant dynamin 1 was incubated with purified cathepsin L (Stressgene) and respective proteolytic fragments were determined using anti-dynamin antibodies that recognize N-terminal GTPase domain (Stressgene). […] The most prominent proteolytic fragment traveled with molecular weight of approximately 40 kD. […] Thus, self-assembly of dynamin:GTPγS protected from cathepsin L cleavage. The middle domain and the […] mediate dynamin self-assembly into higher order structures. Based on the 3D-structure of self-assembled dynamin determined by cry-EM, the middle and the GAP domains are localized within self-assembled dynamin and thus amino acid sequences situated within either of these domains are predicted to be inaccessible for cathepsin L. Since activity of cathepsin L at pH 7.0 was marginal if GTP was not added in the assay, in order to examine whether GTPγS and thus self-assembly can protect from cathepsin L cleavage in general, assays were performed at lower pHs. As expected, at pH 5.0 and 6.0 cathepsin L potently proteolyzed recombinant dynamin (FIG. 4E). […] Thus, generation of 40 kD fragment upon addition of GTP in the assay and protection of the cleavage by GTPγS are consistent with primary cleavage site for cathepsin L to be present within the middle domain.
# GTP in vitro and in vivo. To further examine if proteolysis of dynamin by cytoplasmic CatL occurs during proteinuric kidney disease, it was examined whether purified dynamin is cleaved by CatL in vitro at neutral pH. The PEPS algorithm identified three putative CatL recognition motifs within dynamin (FIG. 19A): amino acids 55-59 (LPRGS; SEQ ID NO.28) within the GTPase domain, 354-359 (ELSGGA; SEQ ID NO.29) within the middle domain, and 614-618 (FLRAG; SEQ ID NO.30) within the pleckstrin-homology (PH) domain. […] The cleavage pattern obtained in vitro is almost identical to that observed in podocytes after addition of LPS (FIG. 18A, compare lanes 3 and 5). p40 is the predicted size of the N-terminal fragment after cleavage at the ELSGGA sequence (FIG. 19A; SEQ ID NO.29). Another fragment, p55, is observed in the absence of added protease (FIG. 19C, lane 1), likely during protein preparation. Thus, p55 is not a precursor of p40. Furthermore, incubation of dynamin with CatB generated p55 in a nucleotide-independent manner (FIG. 19F, lanes 2-4), whereas furin, another protease also found in podocytes in vivo, was unable to cleave dynamin (FIG. 19F, lanes 6-8). Thus, while p55 is produced by a number of proteases and thus represents a “hot spot” for proteolysis, p40 is generated by CatL only when dynamin is in the GTP-bound conformation.
# At pH 5.0 and 6.0, CatL was highly reactive towards recombinant dynamin, even in the absence of GTP (FIG. 19D, lanes 2 and 4).
# Recombinant dynamin was purified as described (Damke et al., 2001). 1 μg of dynamin (10 pmol) was diluted in buffer containing 200 mM NaCl, 10 mM HEPES pH 7.0, 2 mM EGTA, 1 mM MgCl2 and 1 mM DTT. When indicated 200 μM of GTP or 1 mM of GTPγS was added, and dynamin was allowed to bind nucleotides for 10 min on ice. Reaction was initiated by addition of 0.5 μl of purified CatL (S.A. 4.13 units/mg of protein from Sigma, Saint Louis, Mo.), and samples were placed at 37° C. in the water bath for 10 min. Total assay volume was 20 μl. Reaction was terminated with addition of E-64d inhibitor (Sigma, Saint Louis, Mo.), and sample buffer. For Western blot analysis 5 μl of the samples was run on 10% SDS-PAGE. When CatB (S.A. 3 units/mg of protein from Sigma, Saint Louis, Mo.) or recombinant human furin (from R&D Systems, Minneapolis, Minn.) were used, 2 μl of the enzymes were added in the assay.
# [3] = donor CFP-WT, acceptor YFP-WT, cells treated with the substance
molecule,measurement,setting,value
b-methyl-cyclodextrin [MBCD],"dynamin-dynamin interactions measured by FLIM, in words",[1],occurred unchanged
same,Mean Lifetime (γ1) ps,[1]; [3],916 ± 427 ps
"C=C1[C@@H](C)[C@H]2[C@H](Cc3ccccc3)NC(=O)[C@]23[C@H](OC(C)=O)/C=C/[C@@](C)(O)C(=O)[C@@H](C)C/C=C/[C@H]3[C@@H]1O [Cyto. D, cytochalasin D]","dynamin self-assembly by FLIM, in words",[2],decrease in the lifetime of alexa 488 is detected through the cytoplasm
same,"dynamin-dynamin interactions measured by FLIM, in words",[1],significantly promoted dynamin-dynamin interactions
same,Mean Lifetime (γ1) ps,[1]; [3],510 ± 29 ps
Nc1nc2c(ncn2[C@@H]2O[C@H](COP(=O)(O)OP(=O)(O)OP(=O)(O)O)[C@@H](O)[C@H]2O)c(=O)[nH]1 [GTP],"cleavage of dynamin by cathepsin L, in words",cathepsin L,resulted in significant cleavage of dynamin by cathepsin L; also recorded: resulted in the generation of a prominent proteolytic fragment
COC(=O)Nc1nc2ccc(C(=O)c3cccs3)cc2[nH]1 [nocodazole],"dynamin-dynamin interactions measured by FLIM, in words",[1],had no effect on dynamin oligomerization
"C/C1=C\[C@H](C)C[C@H](C)OC(=O)C[C@H](c2ccc(O)cc2)NC(=O)[C@@H](Cc2c(Br)[nH]c3ccccc23)N(C)C(=O)[C@H](C)NC(=O)[C@@H](C)C1 [Jaspl., jasplakinolide, reference compound]",Mean Lifetime (γ1),[2],2254 ± 58
same,"dynamin self-assembly by FLIM, in words",[2],did not effect dynamin self-assembly at the membrane
same,"dynamin-dynamin interactions measured by FLIM, in words",[1],had no effect
same,Mean Lifetime (γ1) ps,[1]; [3],845 ± 263 ps
"COc1cc2c(c(OC)c1OC)-c1ccc(OC)c(=O)cc1[C@@H](NC(C)=O)CC2 [Colchisine, reference compound]",Mean Lifetime (γ1),[2],2295 ± 98
B1,Mean Lifetime (γ1) ps,[1]; acceptor YFP not fused to dynamin,1838 ± 309 ps
same,Mean Lifetime (γ1) ps,"[1]; donor alone, no acceptor",2292 ± 297 ps
B2,Mean Lifetime (γ1) ps,[1]; acceptor YFP fused to the same dynamin variant,1858 ± 187 ps
